Assay results reported in patent US10406120B2, “Methods and compositions for treating kidney disorders” (Golden Biotechnology Corporation, priority 2013, dated 2019).

Experiments:
IL-18 = assay: AcP-IgAN model: serum IL-18 ELISA; assay type: in vivo, B cell-deficient mice; settings: AcP-IgAN mice, day 28, vs control AcP-IgAN mice
Method: B cell-deficient mice (B6.129S2-Igh-6tm1Cgn/J) were obtained from the Academia Sinica (Professor John T. Kung, Institute of Molecular Biology), and maintained at the animal center of the National Defense Medical Center, Taipei, Taiwan. AcP-IgAN was induced in the mice by daily injection of purified IgA anti-phosphorylcholine antibodies and pneumococcal C-polysaccharide (PnC) as described previously (Chao, et al., Kidney Int. 70:283-297; 2006). All animal experiments were performed with the approval of the Institutional Animal Care and Use Committee of The National Defense Medical Center, Taiwan, and were consistent with the NIH Guide for the Care and Use of Laboratory Animals.
Serum levels of IL-1β (eBiosceience, CA), IL-6 (eBiosceience), IL-18 (MBL, Japan), and MCP-1 (eBiosceience) were measured using commercial ELISA kits according to the manufacturer's instructions.

Nrf2 = assay: FSGS model: Western blot of nuclear Nrf2 in kidney; assay type: in vivo, BALB/c mice; settings: FSGS mice, day 14 to day 21, vs control FSGS mice or normal controls
Method: (§1) Experiments described herein were performed on 8-week-old female BALB/c mice. The FSGS mice were injected intravenously with a single dose of adriamycin (0.1 mg/10 g body weight). The mice were given Compound 1 six hours before adriamycin injection by gavage daily till sacrifice. BALB/c mice intraperitoneal injected with normal saline were used as normal controls, while ASLN mice given vehicle (corn oil) by gavage were used as disease controls. Mice were killed at day 7, 14, or 21 after disease induction, and spleen, renal cortical tissue, and blood samples collected and stored appropriately until analysis. All animal experiments were performed with the ethical approval of the Institutional Animal Care and Use Committee of The National Defense Medical Center, Taiwan and performed according to the ethical rules in the NIH Guide for the Care and Use of Laboratory Animals.
The preparation of cytoplasmic and nuclear proteins of renal tissues was extracted using the Nuclear Extract Kit (Active Motif, Tokyo, Japan) according to the manufacturer's instructions. Target proteins in the cytoplasmic and/or nuclear fractions of kidney tissue were measured by Western blot analysis using rabbit antibodies against mouse Nrf2, or p47^phox (Santa Cruz). […]

superoxide anion = assay: FSGS model: superoxide anion / ROS determination (lucigenin, DHE); assay type: in vivo, BALB/c mice; settings: FSGS mice
Method: as §1
Kidney in-situ superoxide anion production was determined by DHE labeling according to the known method. (Wu, et al., Nephrol Dial Transplant, 2008, 23: 3082-3090, or Ka, et al., J. Am. Soc. Nephrol. 2007, 18:2473-2485) Fluorescent images were quantified by counting the percentage of positive nuclei in the total nuclei per kidney cross section. Sera and kidney tissues were assessed for superoxide anion according to the known method. (Wu, et al., J Pineal Res, 2001, 30: 147-156, or Ka, et al., J. Am. Soc. Nephrol. 2007, 18:2473-2485) For ROS levels of serum, urine, and renal tissue, the samples were incubated with Krebs-HEPES buffer, and lucigenin (Sigma-Aldrich Chemical Co, MO) at 1.25 mM was used as substrate. Luminescence counts were obtained in duplicate at 15 sec intervals by a microplate luminometer (Hidex Microplate Luminometer, Finland), as previously described (Kretzler, et al.,. Virchows Arch, 425: 181-193, 1994). The superoxide anion activity was expressed as relative luminescence units (RLU) per 15 min per mg of organ dry weight (i.e., RUL/15 min/mg) or RLU/15 min/ml.

COC1=C(OC)[C@H](O)[C@H](C/C=C(\C)CC/C=C(\C)CCC=C(C)C)[C@@H](C)C1=O [Compound 1, Antroquinonol]
serum IL-18 levels (IL-18): substantial inhibition
Nrf2 translocation into nuclei (Nrf2): strongly augmented
superoxide anion levels in urine (superoxide anion; day 7 to day 21, vs control FSGS mice): significantly lowered
serum superoxide anion levels (superoxide anion; day 7 to day 21, vs control FSGS mice, to a level similar to normal control): effectively attenuated
in-situ ROS production in renal tissue (DHE fluorescence) (superoxide anion; day 14 and day 21): only very low DHE fluorescence
superoxide anion levels in the kidney (superoxide anion; day 14 and day 21, vs control FSGS mice, to a level similar to normal control): effectively attenuated
